Laboratory results published in publication PMC7423924, “A fluorogenic cyclic peptide for imaging and quantification of drug-induced apoptosis” (Nature Communications, 2020).
Several values for one entry are separate records, joined by “and”; a condition that tells them apart may be missing. Equal entries are not always repeated.

What was measured:
human neutrophils = assay: CDKi-induced, caspase-dependent neutrophil apoptosis detected with Apo-15; assay type: cell-based; settings: R-roscovitine 20 µM (CDKi), QVD 10 μM, single replicates Data 1-4
Procedure: First, we confirmed that Apo-15 could detect CDKi-induced apoptosis in vitro. […] Apo-15 staining of CDKi-induced apoptosis was also caspase-dependent as confirmed by a significant reduction in the fluorescent signal after treatment with the caspase inhibitor QVD[34] (Fig. 5a). Next, we induced ALI in vivo in mice by intratracheal administration of E. coli-derived LPS (1 μg per mouse), and the apoptotic load in the lungs relative to saline control was increased by intraperitoneal administration of CDKi AT7519[38] (Fig. 5b). In all mice, we administered Apo-15 in vivo and, 30 min later, we collected bronchoalveolar lavage fluid (BALF) together with lung tissues. BALF and lung slices from LPS-only and LPS + CDKi mice were analyzed by multiparameter flow cytometry to determine the proportion of apoptotic cells that had been stained by Apo-15 in vivo (gating strategy in Supplementary Fig. 15). […] Furthermore, we quantified the effects of CDKi-induced apoptosis in vivo by measuring the percentages of apoptotic neutrophils in total cell counts. […] We confirmed that CD45 + Ly6G+ cells labeled by Apo-15 in vivo were apoptotic by co-staining with AF647-Annexin V ex vivo (Fig. 5d). Next, we acquired fluorescence microscopy images of lung tissue sections from mice under different regimes (Fig. 5c, e). […]

[1] = set-up: method as in 2 sources, ref Table 1 ||| ref [8],[60],[19],[61],[63],[64],[66],[67] = [8]; PMID 19966809; doi:10.1038/nmeth.1405; 8. Kim YE Chen J Chan JR Langen R Engineering a polarity-sensitive biosensor for time-lapse imaging of apoptotic processes and degeneration Nat. Methods 2010 7 67 73 19966809 10.1038/nmeth.1405 PMC284 || [60]; PMID 20671723; doi:10.1038/nprot.2010.101; 60. Kim YE Chen J Langen R Chan JR Monitoring apoptosis and neuronal degeneration by real-time detection of phosphatidylserine externalization using a polarity-sensitive indicator of viability and apo || [19]; PMID 17051335; doi:10.1007/s10495-006-0282-7; 19. Aloya R Molecular imaging of cell death in vivo by a novel small molecule probe Apoptosis 2006 11 2089 2101 17051335 10.1007/s10495-006-0282-7 PMC2782107 || [61]; PMID 16317537; doi:10.1007/s00259-005-1905-x; 61. Damianovich M ApoSense: a novel technology for functional molecular imaging of cell death in models of acute renal tubular necrosis Eur. J. Nucl. Med. Mol. Imaging 2006 33 281 291 16317537 10.1007 || [63]; PMID 15113694; doi:10.1016/j.ab.2004.01.020; 63. Garcia Fernandez MI Ceccarelli D Muscatello U Use of the fluorescent dye 10-N-nonyl acridine orange in quantitative and location assays of cardiolipin: a study on different experimental models Ana; settings: cited from earlier work; for Brightness (φ × ε): Table 1, commercial probes, ref [8],[60],[19],[61],[63],[64],[66],[67]
apoptotic neutrophils = assay: Signal-to-noise ratios in imaging of apoptotic neutrophils; assay type: cell-based, human; settings: apoptotic cells, excitation 488 nm, same settings; response to reviewers
Procedure: Signal-to-noise ratios for apoptotic neutrophils labeled with FITC-Annexin V or Apo-15 were determined after image acquisition under the same laser power and gain and analysis using ImageJ. Briefly, raw images were converted into 16-bit grayscale images and average fluorescence intensities in labeled cells and in the background were measured (≥150 points per condition). Experiments were performed in triplicate.
Supplementary Figure 14. Quantification of the fluorescence signal-to-noise (S/N) ratios in apoptotic neutrophils after staining with Apo -15 (100 nM) or FITC-Annexin V (25 nM) and image acquisition under the same experimental conditions
(excitation/emission filters: 488 nm /525 nm). Data presented as mean values±SEM (n=3-4 independent cells from 3 independent experiments). Source data are provided […]
FIT C, AlexaFluor647). […]
In imaging experiment in mice, the fluorescence signals were not found along membranes in the cells. […]
First, we have included flow cytometric data from BALs of LPS-treated mice that were not given Apo- 15, which conf irm ed the lack of green fluorescence in viable CD45+CD11c+ Annexin V− macrophages (new Supplementary Figure 15 and new Supplementary Figure 18 for the results). […]

Molecule	Apo-15-positive cells (flow cytometry) (human neutrophils)	Brightness (φ × ε) [1]	other results
CC[C@H](CO)Nc1nc(NCc2ccccc2)c2ncn(C(C)C)c2n1 [CDKi, R-roscovitine]	57.1 and 64.3 and 39.1 and 90.1		
CN(C)c1cccc2c(S(=O)(=O)N[C@@H](CSSC[C@H](NS(=O)(=O)c3cccc4c(N(C)C)cccc34)C(=O)O)C(=O)O)cccc12 [N,N′-Didansyl-L-cystin]		3000	Brightness ([1]; other environmentally-sensitive probes, ref Table 1): 3000 M⁻¹ cm⁻¹
CCCCCCCCC[n+]1c2cc(N(C)C)ccc2cc2ccc(N(C)C)cc21.[Br-] [Nonyl acridine orange]		20,000	
CC[N+](C)(CC)CCC[n+]1c(-c2ccccc2)c2cc(N)ccc2c2ccc(N)cc21.[I-].[I-] [PI, propidium iodide]		<100	
CC(C)[C@H](NC(=O)c1ccc2ccccc2n1)C(=O)N[C@@H](CC(=O)O)C(=O)COc1c(F)cccc1F [QVD]	3.0 and 7.0 and 2.9 and 4.0		
Annexin-FITC: FITC-labeled annexin V (protein, UniProt P08758 2-320, looked up, FITC label, FITC-labeled annexin V) Annexin A5: AQVLRGTVTDFPGFDERADAETLRKAMKGLGTDEESILTLLTSRSNAQRQEISAAFKTLFGRDLLDDLKSELTGKFEKLIVALMKPSRLYDAYELKHALKGAGTNEKVLTEIIASRTPEELRAIKQVYEEEYGSSLEDDVVGDTSGYYQRMLVVLLQANRDPDAGIDEAQVEQDAQALFQAGELKWGTDEEKFITIFGTRSVSHLRKVFDKYMTISGFQIEETIDRETSGNLEQLLLAVVKSIRSIPAYLAETLYYAMKGAGTDDHTLIRVMVSRSEIDLFNIRKEFRKNFATSLYSMIKGDTSGDYKKALLLLCGEDD			Signal-to-noise ratio (apoptotic neutrophils): ~100 fold
